Assay results as given in article PMC7156458, “Synthetic biology based construction of biological activity-related library of fungal decalin-containing diterpenoid pyrones” (Nature Communications, 2020).

Biological target: Aβ42 (Homo sapiens, UniProt P05067)
Test: Th-T (thioflavin-T) assay of Aβ42 aggregation
Assay type: biochemical
Details: for Th-T fluorescence of Aβ42 with compound, mean of three wells (Fig. 7a source data): concentration 50, unit not given

Sequence of Aβ42 (P05067 672-713): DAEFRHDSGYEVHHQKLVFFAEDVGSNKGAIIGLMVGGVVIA

SMILES: C=C1CC[C@@H]2[C@](C)(CC[C@H]3O[C@H](C=C(C)C)C[C@@]23C)[C@@H]1Cc1c(OC)oc(CO)c(C(=O)OC)c1=O [Compound 21]
- Th-T fluorescence of Aβ42 with compound, mean of three wells (Fig. 7a source data) (time-course reading M143): 0.5052
- Th-T fluorescence of Aβ42 with compound, mean of three wells (Fig. 7a source data) (time-course reading M144): 0.5053
- Th-T fluorescence of Aβ42 with compound, mean of three wells (Fig. 7a source data) (time-course reading M145): 0.5045
- Th-T fluorescence of Aβ42 (sheet Fig. 7a), mean of three wells (head suffix _10 (concentration 10), reading M63): 0.5289
- Th-T fluorescence of Aβ42 (sheet Fig. 7a), mean of three wells (head suffix _10 (concentration 10), reading M64): 0.6173
- Th-T fluorescence of Aβ42 (sheet Fig. 7a), mean of three wells (head suffix _10 (concentration 10), reading M65): 0.6561
- Th-T fluorescence of Aβ42 (sheet Fig. 7a), mean of three wells (head suffix _10 (concentration 10), reading M66): 0.6931
- Th-T fluorescence of Aβ42 (sheet Fig. 7a), mean of three wells (head suffix _10 (concentration 10), reading M67): 0.7435
- Th-T fluorescence of Aβ42 (sheet Fig. 7a), mean of three wells (head suffix _10 (concentration 10), reading M68): 0.7523
- Th-T fluorescence of Aβ42 (sheet Fig. 7a), mean of three wells (head suffix _10 (concentration 10), reading M69): 0.7892
- Th-T fluorescence of Aβ42 (sheet Fig. 7a), mean of three wells (head suffix _10 (concentration 10), reading M70): 0.7946
- Th-T fluorescence of Aβ42 (sheet Fig. 7a), mean of three wells (head suffix _10 (concentration 10), reading M71): 0.8033
- Th-T fluorescence of Aβ42 (sheet Fig. 7a), mean of three wells (head suffix _10 (concentration 10), reading M72): 0.7933
- Th-T fluorescence of Aβ42 (sheet Fig. 7a), mean of three wells (head suffix _10 (concentration 10), reading M73): 0.8223
- Th-T fluorescence of Aβ42 (sheet Fig. 7a), mean of three wells (head suffix _10 (concentration 10), reading M74): 0.8738
- Th-T fluorescence of Aβ42 (sheet Fig. 7a), mean of three wells (head suffix _10 (concentration 10), reading M75): 0.8711
- Th-T fluorescence of Aβ42 (sheet Fig. 7a), mean of three wells (head suffix _10 (concentration 10), reading M76): 0.921
- Th-T fluorescence of Aβ42 (sheet Fig. 7a), mean of three wells (head suffix _10 (concentration 10), reading M77): 0.9791
- Th-T fluorescence of Aβ42 (sheet Fig. 7a), mean of three wells (head suffix _10 (concentration 10), reading M78): 1.0381
- Th-T fluorescence of Aβ42 (sheet Fig. 7a), mean of three wells (head suffix _10 (concentration 10), reading M79): 1.098
- Th-T fluorescence of Aβ42 (sheet Fig. 7a), mean of three wells (head suffix _10 (concentration 10), reading M80): 1.155
- Th-T fluorescence of Aβ42 (sheet Fig. 7a), mean of three wells (head suffix _10 (concentration 10), reading M81): 1.227
- Th-T fluorescence of Aβ42 (sheet Fig. 7a), mean of three wells (head suffix _10 (concentration 10), reading M82): 1.285
- Th-T fluorescence of Aβ42 (sheet Fig. 7a), mean of three wells (head suffix _10 (concentration 10), reading M83): 1.378
- Th-T fluorescence of Aβ42 (sheet Fig. 7a), mean of three wells (head suffix _10 (concentration 10), reading M84): 1.428
- Th-T fluorescence of Aβ42 (sheet Fig. 7a), mean of three wells (head suffix _20 (concentration 20), reading M63): 0.2431
- Th-T fluorescence of Aβ42 (sheet Fig. 7a), mean of three wells (head suffix _20 (concentration 20), reading M64): 0.2464
- Th-T fluorescence of Aβ42 (sheet Fig. 7a), mean of three wells (head suffix _20 (concentration 20), reading M65): 0.2511
- Th-T fluorescence of Aβ42 (sheet Fig. 7a), mean of three wells (head suffix _20 (concentration 20), reading M66): 0.2535
- Th-T fluorescence of Aβ42 (sheet Fig. 7a), mean of three wells (head suffix _20 (concentration 20), reading M67): 0.2562
- Th-T fluorescence of Aβ42 (sheet Fig. 7a), mean of three wells (head suffix _20 (concentration 20), reading M68): 0.2616
- Th-T fluorescence of Aβ42 (sheet Fig. 7a), mean of three wells (head suffix _20 (concentration 20), reading M69): 0.2677
- Th-T fluorescence of Aβ42 (sheet Fig. 7a), mean of three wells (head suffix _20 (concentration 20), reading M70): 0.2739
- Th-T fluorescence of Aβ42 (sheet Fig. 7a), mean of three wells (head suffix _20 (concentration 20), reading M71): 0.2831
- Th-T fluorescence of Aβ42 (sheet Fig. 7a), mean of three wells (head suffix _20 (concentration 20), reading M72): 0.2882
- Th-T fluorescence of Aβ42 (sheet Fig. 7a), mean of three wells (head suffix _20 (concentration 20), reading M73): 0.2974
- Th-T fluorescence of Aβ42 (sheet Fig. 7a), mean of three wells (head suffix _20 (concentration 20), reading M74): 0.3106
- Th-T fluorescence of Aβ42 (sheet Fig. 7a), mean of three wells (head suffix _20 (concentration 20), reading M75): 0.3227
- Th-T fluorescence of Aβ42 (sheet Fig. 7a), mean of three wells (head suffix _20 (concentration 20), reading M76): 0.3296
- Th-T fluorescence of Aβ42 (sheet Fig. 7a), mean of three wells (head suffix _20 (concentration 20), reading M77): 0.3505
- Th-T fluorescence of Aβ42 (sheet Fig. 7a), mean of three wells (head suffix _20 (concentration 20), reading M78): 0.3679
- Th-T fluorescence of Aβ42 (sheet Fig. 7a), mean of three wells (head suffix _20 (concentration 20), reading M79): 0.3859
- Th-T fluorescence of Aβ42 (sheet Fig. 7a), mean of three wells (head suffix _20 (concentration 20), reading M80): 0.4085
- Th-T fluorescence of Aβ42 (sheet Fig. 7a), mean of three wells (head suffix _20 (concentration 20), reading M81): 0.4348
- Th-T fluorescence of Aβ42 (sheet Fig. 7a), mean of three wells (head suffix _20 (concentration 20), reading M82): 0.4734
- Th-T fluorescence of Aβ42 (sheet Fig. 7a), mean of three wells (head suffix _20 (concentration 20), reading M83): 0.5074
- Th-T fluorescence of Aβ42 (sheet Fig. 7a), mean of three wells (head suffix _20 (concentration 20), reading M84): 0.5384
- Th-T fluorescence of Aβ42 (sheet Fig. 7a), mean of three wells (head suffix _50 (concentration 50), reading M63): 0.2314
- Th-T fluorescence of Aβ42 (sheet Fig. 7a), mean of three wells (head suffix _50 (concentration 50), reading M64): 0.2365
- Th-T fluorescence of Aβ42 (sheet Fig. 7a), mean of three wells (head suffix _50 (concentration 50), reading M65): 0.2406
- Th-T fluorescence of Aβ42 (sheet Fig. 7a), mean of three wells (head suffix _50 (concentration 50), reading M66): 0.2402
- Th-T fluorescence of Aβ42 (sheet Fig. 7a), mean of three wells (head suffix _50 (concentration 50), reading M67): 0.2439
- Th-T fluorescence of Aβ42 (sheet Fig. 7a), mean of three wells (head suffix _50 (concentration 50), reading M68): 0.2485
- Th-T fluorescence of Aβ42 (sheet Fig. 7a), mean of three wells (head suffix _50 (concentration 50), reading M69): 0.2533
- Th-T fluorescence of Aβ42 (sheet Fig. 7a), mean of three wells (head suffix _50 (concentration 50), reading M70): 0.2583
- Th-T fluorescence of Aβ42 (sheet Fig. 7a), mean of three wells (head suffix _50 (concentration 50), reading M71): 0.2613
- Th-T fluorescence of Aβ42 (sheet Fig. 7a), mean of three wells (head suffix _50 (concentration 50), reading M72): 0.2693
